Experimental data: ChEMBL document CHEMBL5338775, “Discovery of a Novel Class of PROTACs as Potent and Selective Estrogen Receptor α Degraders to Overcome Endocrine-Resistant Breast Cancer In Vitro and In Vivo” (J Med Chem, 2023)
pIC50, pKi: −log10 of the molar value. Calls of active or inactive are those of the source. No cut-off for these calls is given here.

Experiments:
[1] = target: T1, Estrogen receptor (Homo sapiens, UniProt P03372)
T1 sequence (P03372 whole entry): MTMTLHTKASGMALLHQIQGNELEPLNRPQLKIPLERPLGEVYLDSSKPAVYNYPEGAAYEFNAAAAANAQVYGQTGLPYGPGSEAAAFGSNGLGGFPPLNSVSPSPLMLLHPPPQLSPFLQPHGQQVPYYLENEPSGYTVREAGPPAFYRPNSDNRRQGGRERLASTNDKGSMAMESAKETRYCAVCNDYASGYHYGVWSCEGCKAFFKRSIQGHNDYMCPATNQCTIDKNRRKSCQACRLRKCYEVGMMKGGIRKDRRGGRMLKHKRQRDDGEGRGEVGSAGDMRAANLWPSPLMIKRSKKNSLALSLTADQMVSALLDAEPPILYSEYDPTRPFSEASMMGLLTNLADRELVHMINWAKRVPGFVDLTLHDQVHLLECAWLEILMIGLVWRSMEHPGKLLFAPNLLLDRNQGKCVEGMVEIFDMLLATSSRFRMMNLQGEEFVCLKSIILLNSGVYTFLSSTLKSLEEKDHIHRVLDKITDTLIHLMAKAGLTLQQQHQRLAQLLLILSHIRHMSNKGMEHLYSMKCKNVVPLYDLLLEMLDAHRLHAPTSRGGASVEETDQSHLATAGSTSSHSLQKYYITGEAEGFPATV

[2] = target: T2, Estrogen receptor beta (Homo sapiens, UniProt Q92731); assay: Binding affinity to ERbeta (unknown origin) assessed as relative binding affinity incubated for 2 hrs by fluorescence polarization assay relative to estradiol
[3] = test system: T47D; assay: cells; details: Homo sapiens, 72 h
[4] = Selectivity ratio of relative binding affinity for ERalpha (unknown origin) to relative binding affinity to ERbeta (unknown origin)
[5] = test system: MCF7; assay: cells; details: Homo sapiens, MCF7, 72 h
[6] = Selectivity index, ratio of Ki for ERalpha (unknown origin) to Ki for ERbeta (unknown origin)
[7] = in vitro; details: human, MCF-10A cells
[8] = target: T2, Estrogen receptor beta
[9] = cells; details: Homo sapiens, Tamoxifen-resistant LCC2 cell, 72 h
[10] = test system: T47D; assay: cells; details: Homo sapiens, 72 h; remark: listed apart in the source
[11] = test system: MDA-MB-231; assay: cells; details: Homo sapiens, MDA-MB-231, 72 h
[12] = test system: T47D; assay: cells; details: Homo sapiens, 72 h; remark: listed apart in the source
[13] = target: Protein cereblon/Estrogen receptor (Homo sapiens) (UniProt P03372+Q96SW2); assay: PROTAC activity at CRBN/wild type ERalpha in ER-positive human MCF7 cells assessed as induction of ERalpha degradation at 1 uM incubated for 12 hrs by Western blot analysis; assay type: cell-based
[14] = target: von Hippel-Lindau disease tumor suppressor/Estrogen receptor (Homo sapiens) (UniProt P03372+P40337); assay: PROTAC activity at VHL/wild type ERalpha in ER-positive human MCF7 cells assessed as induction of ERalpha degradation at 1 uM incubated for 12 hrs by Western blot analysis; assay type: cell-based
Chain of von Hippel-Lindau disease tumor suppressor/Estrogen receptor (Homo sapiens) (P40337 whole entry, looked up, one chain of several): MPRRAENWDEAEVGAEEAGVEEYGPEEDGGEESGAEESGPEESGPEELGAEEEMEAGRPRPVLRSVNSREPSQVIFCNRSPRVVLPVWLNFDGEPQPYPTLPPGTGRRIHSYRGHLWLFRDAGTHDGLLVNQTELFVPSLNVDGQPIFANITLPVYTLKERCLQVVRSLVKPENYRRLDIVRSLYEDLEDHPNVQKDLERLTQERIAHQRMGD

Chain of Protein cereblon/Estrogen receptor (Homo sapiens) (Q96SW2 whole entry, looked up, one chain of several): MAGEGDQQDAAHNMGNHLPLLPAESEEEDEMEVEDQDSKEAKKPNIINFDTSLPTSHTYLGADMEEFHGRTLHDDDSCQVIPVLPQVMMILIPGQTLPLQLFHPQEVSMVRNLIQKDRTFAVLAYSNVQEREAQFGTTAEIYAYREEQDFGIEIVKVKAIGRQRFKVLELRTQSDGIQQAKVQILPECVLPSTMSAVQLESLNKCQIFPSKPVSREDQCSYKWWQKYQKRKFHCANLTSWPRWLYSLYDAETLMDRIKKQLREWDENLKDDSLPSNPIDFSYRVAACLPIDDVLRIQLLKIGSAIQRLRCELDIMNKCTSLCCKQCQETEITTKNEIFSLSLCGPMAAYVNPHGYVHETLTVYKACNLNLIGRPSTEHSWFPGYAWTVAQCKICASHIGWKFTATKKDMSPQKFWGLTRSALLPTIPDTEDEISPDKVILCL
T2 sequence (Q92731 whole entry): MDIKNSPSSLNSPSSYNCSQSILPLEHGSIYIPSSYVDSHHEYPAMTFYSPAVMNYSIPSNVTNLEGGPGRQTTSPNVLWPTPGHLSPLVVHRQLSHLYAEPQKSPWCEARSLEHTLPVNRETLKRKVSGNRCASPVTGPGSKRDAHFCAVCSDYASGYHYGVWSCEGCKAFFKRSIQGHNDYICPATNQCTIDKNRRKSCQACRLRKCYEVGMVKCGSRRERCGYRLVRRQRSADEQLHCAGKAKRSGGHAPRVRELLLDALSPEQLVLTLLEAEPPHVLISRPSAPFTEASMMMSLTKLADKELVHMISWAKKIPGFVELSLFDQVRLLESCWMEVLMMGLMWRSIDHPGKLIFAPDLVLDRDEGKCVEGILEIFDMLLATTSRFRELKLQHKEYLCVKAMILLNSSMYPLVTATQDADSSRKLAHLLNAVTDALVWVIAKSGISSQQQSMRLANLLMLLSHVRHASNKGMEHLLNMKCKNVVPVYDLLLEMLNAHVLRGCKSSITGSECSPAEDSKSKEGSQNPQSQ

Structure (SMILES) | pKi [1] | RBA [2] [%] | pIC50 [3] | Selectivity ratio [4] | pIC50 [5] | Ratio Ki [6] | IC50 at 72 h [7] [µM] | pKi [8] | pIC50 [9] | pIC50 [10] | pIC50 [11] | pIC50 [12] | Activity [13] | Activity [14]
CCN(c1ccc(OCCCCC(=O)N[C@H](C(=O)N2C[C@H](O)C[C@H]2C(=O)N[C@@H](C)c2ccc(-c3scnc3C)cc2)C(C)(C)C)cc1)S(=O)(=O)C1CC2OC1C(c1ccc(O)cc1)=C2c1ccc(O)cc1 (some centres not stated) | 5.90 | 0.11 | 4.74 | 1.45 | 6.03 | 5.63 | 2.4 | 5.15 | 4.78 | 4.83 | < 4.00 | 4.85 | – | –
O=C(COc1ccc(C2CCC(=O)NC2=O)cc1)NCCCCCCNC(=O)COc1ccc(N(CC(F)(F)F)S(=O)(=O)C2CC3OC2C(c2ccc(O)cc2)=C3c2ccc(O)cc2)cc1 (configuration not stated) | 5.95 | 0.11 | < 4.52 | 1.64 | 5.19 | 6.34 | > 30 | 5.15 | < 4.52 | < 4.52 | < 4.00 | < 4.52 | Active | –
O=C(COc1ccc(C2CCC(=O)NC2=O)cc1)NCCNC(=O)COc1ccc(N(CC(F)(F)F)S(=O)(=O)C2CC3OC2C(c2ccc(O)cc2)=C3c2ccc(O)cc2)cc1 (configuration not stated) | 6.01 | 0.16 | 4.67 | 1.31 | 5.94 | 5.08 | 13.7 | 5.31 | 4.68 | 4.70 | < 4.00 | 4.76 | Active | –
CCN(c1ccc(OCCCCCCC(=O)N[C@H](C(=O)N2C[C@H](O)C[C@H]2C(=O)NCc2ccc(-c3scnc3C)cc2)C(C)(C)C)cc1)S(=O)(=O)C1CC2OC1C(c1ccc(O)cc1)=C2c1ccc(O)cc1 (some centres not stated) | 5.97 | 0.12 | < 4.52 | 1.58 | 6.37 | 6.13 | > 100 | 5.18 | < 4.52 | < 4.52 | < 4.00 | < 4.52 | – | –
COc1ccc(N(CC(F)(F)F)S(=O)(=O)C2CC3OC2C(c2ccc(OCCCCCC(=O)N[C@H](C(=O)N4C[C@H](O)C[C@H]4C(=O)NCc4ccc(-c5scnc5C)cc4)C(C)(C)C)cc2)=C3c2ccc(O)cc2)cc1 (some centres not stated) | 5.73 | 0.07 | < 4.52 | 1.57 | < 5.00 | 6.08 | > 100 | 4.95 | < 4.52 | < 4.52 | < 4.00 | < 4.52 | – | inactive
CCN(c1ccc(OCCCCC(=O)N[C@H](C(=O)N2C[C@H](O)C[C@H]2C(=O)NCc2ccc(-c3scnc3C)cc2)C(C)(C)C)cc1)S(=O)(=O)C1CC2OC1C(c1ccc(O)cc1)=C2c1ccc(O)cc1 (some centres not stated) | 6.14 | 0.13 | 5.14 | 2.15 | 5.95 | 8.34 | 1.03 | 5.22 | 4.82 | 5.34 | < 4.00 | 5.52 | – | –
O=C(COc1cccc2c1C(=O)N(C1CCC(=O)NC1=O)C2=O)NCCCCCCOc1ccc(N(CC(F)(F)F)S(=O)(=O)C2CC3OC2C(c2ccc(O)cc2)=C3c2ccc(O)cc2)cc1 (configuration not stated) | 5.73 | 0.1 | < 4.52 | 1.1 | 4.96 | 4.26 | > 100 | 5.10 | < 4.52 | < 4.52 | < 4.00 | 4.59 | Active | –
CC/C(=C(\c1ccc(O)cc1)c1ccc(OCCN(C)C)cc1)c1ccccc1 [AFIMOXIFENE] | – | – | 5.00 | – | – | – | – | – | 4.65 | 4.94 | – | 5.71 | – | –
O=C(COc1cccc2c1C(=O)N(C1CCC(=O)NC1=O)C2=O)NCCCCCCCCOc1ccc(N(CC(F)(F)F)S(=O)(=O)C2CC3OC2C(c2ccc(O)cc2)=C3c2ccc(O)cc2)cc1 (configuration not stated) | 5.84 | 0.16 | < 4.30 | 0.88 | < 4.30 | 3.39 | > 100 | 5.31 | < 4.30 | < 4.30 | < 4.00 | < 4.30 | inactive | –
O=C(COc1cccc2c1C(=O)N(C1CCC(=O)NC1=O)C2=O)NCCCCOc1ccc(N(CC(F)(F)F)S(=O)(=O)C2CC3OC2C(c2ccc(O)cc2)=C3c2ccc(O)cc2)cc1 (configuration not stated) | 5.47 | 0.07 | < 4.30 | 0.86 | < 4.30 | 3.32 | > 100 | 4.95 | < 4.30 | < 4.30 | < 4.00 | < 4.30 | inactive | –
CCN(c1ccc(OCCCCCCCCC(=O)N[C@H](C(=O)N2C[C@H](O)C[C@H]2C(=O)NCc2ccc(-c3scnc3C)cc2)C(C)(C)C)cc1)S(=O)(=O)C1CC2OC1C(c1ccc(O)cc1)=C2c1ccc(O)cc1 (some centres not stated) | 5.29 | 0.07 | < 4.52 | 0.57 | < 5.00 | 2.21 | > 100 | 4.95 | < 4.52 | < 4.52 | < 4.00 | < 4.52 | – | –
CCN(c1ccc(OCCCCCCC(=O)N[C@H](C(=O)N2C[C@H](O)C[C@H]2C(=O)N[C@@H](C)c2ccc(-c3scnc3C)cc2)C(C)(C)C)cc1)S(=O)(=O)C1CC2OC1C(c1ccc(O)cc1)=C2c1ccc(O)cc1 (some centres not stated) | 5.69 | 0.07 | < 4.52 | 1.43 | 6.24 | 5.53 | > 100 | 4.95 | < 4.52 | < 4.52 | < 4.00 | < 4.52 | – | –
CCN(c1ccc(OCCCCCCCC(=O)N[C@H](C(=O)N2C[C@H](O)C[C@H]2C(=O)NCc2ccc(-c3scnc3C)cc2)C(C)(C)C)cc1)S(=O)(=O)C1CC2OC1C(c1ccc(O)cc1)=C2c1ccc(O)cc1 (some centres not stated) | 6.12 | 0.1 | < 4.52 | 2.7 | < 5.00 | 10.4 | > 100 | 5.10 | < 4.52 | < 4.52 | < 4.00 | < 4.52 | – | –
CCN(c1ccc(OCCCCCC(=O)Nc2cccc3c2C(=O)N(C2CCC(=O)NC2=O)C3=O)cc1)S(=O)(=O)C1CC2OC1C(c1ccc(O)cc1)=C2c1ccc(O)cc1 (configuration not stated) | 6.01 | 0.18 | < 4.00 | 1.17 | < 4.00 | 4.52 | > 100 | 5.36 | < 4.00 | < 4.00 | < 4.00 | < 4.00 | inactive | –
CCN(c1ccc(OCCCCCCCCCC(=O)N[C@H](C(=O)N2C[C@H](O)C[C@H]2C(=O)NCc2ccc(-c3scnc3C)cc2)C(C)(C)C)cc1)S(=O)(=O)C1CC2OC1C(c1ccc(O)cc1)=C2c1ccc(O)cc1 (some centres not stated) | 5.47 | 0.08 | < 4.52 | 0.75 | < 5.00 | 2.9 | > 100 | 5.01 | < 4.52 | < 4.52 | < 4.00 | < 4.52 | – | –
O=C(COc1ccc(C2CCC(=O)NC2=O)cc1)NCCCCNC(=O)COc1ccc(N(CC(F)(F)F)S(=O)(=O)C2CC3OC2C(c2ccc(O)cc2)=C3c2ccc(O)cc2)cc1 (configuration not stated) | 5.90 | 0.18 | 4.82 | 0.89 | 6.16 | 3.44 | 9.45 | 5.36 | 4.84 | 4.75 | < 4.00 | 4.83 | Active | –
